Assay results as given in patent US11109593B2, “Isoxazolin-5-one derivative and herbicide containing same as active ingredient” (HOKKO CHEMICAL INDUSTRY CO., LTD., priority 2017, dated 2021).

Key:
Format in all cases: in vivo
[1] = tested on: Echinochloa crus-galli; test: Test Example 4: herbicidal effect test by treatment of leave and stem in dry field farming (seven days after seeding); settings: 120 g/10a active ingredient; emulsion sprayed seven days after seeding; evaluated 14 days after treatment
Experimental: (§1) This test was conducted in a double system per one agent solution concentration area, and the herbicidal rates (%) were determined by the following equation (Math. 1) on 14 days after the treatment with the agents. Herbicidal Rate (%)={1-(Average Dry Weight (g) of Plant of Treated Area)/(Average Dry Weight (g) of Plant of Untreated Area)}×100 [Math. 1]
(§2) Herbicidal Effect Test by Treatment of Leave and Stem in Dry Field Farming
(§3) Pots with a size of 36 cm^2 were filled with a dry field farming soil (alluvium). The soil of the top layer of 1 cm and seeds of weeds, namely southern crabgrass, Echinochloa crus-galli, Chenopodium album and Amaranthus viridis, 20 seeds each, were evenly mixed, and the top layer was gently pressed. Emulsions prepared using the compounds in Table 6 below according to Formulation Example 5 were diluted with water seven days after seeding, and the water-diluted agent solutions were sprayed to the soil surfaces at a ratio of 100 liters per 10 ares. The converted amount of the applied active ingredient corresponded to 120 g per 10 ares. The herbicidal effects were evaluated by the same standard as that in Test Example 1 on 14 days after the treatment with the agents. […] The compound numbers in Table 6 are the same as those in Table 1 and Table 2 above.

[2] = tested on: Amaranthus viridis; test: as above; settings: 120 g/10a active ingredient; emulsion sprayed seven days after seeding; evaluated 14 days after treatment
Experimental: as §1, §2, §3

[3] = tested on: southern crabgrass; test: as above; settings: 120 g/10a active ingredient; emulsion sprayed seven days after seeding; evaluated 14 days after treatment
Experimental: as §1, §2, §3

[4] = tested on: Chenopodium album; test: as above; settings: 120 g/10a active ingredient; emulsion sprayed seven days after seeding; evaluated 14 days after treatment
Experimental: as §1, §2, §3

[5] = tested on: Echinochloa crus-galli; test: Test Example 2: herbicidal effect test by treatment during growing period in paddy rice cultivation (seven days after seeding); settings: for Herbicidal rate (%) Echinochloa crus-galli: 120 g/10a active ingredient, assessed 14 days after treatment, dry weight vs untreated area
Procedure, shortened: (§4)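 Seeds sown 0–1 cm deep in puddled, fertilised paddy soil with about 3 cm standing water in a glass greenhouse. Diluted emulsion dropped into the water seven days after seeding at 120 g active ingredient per 10 ares. Herbicidal rate (%) from mean dry weight vs untreated, duplicate, 14 days after treatment.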

[6] = tested on: broad leaf weeds (Lindernia pyxidaria and Monochoria vaginalis); test: as above; settings: for Herbicidal rate (%) Lindernia pyxidaria / Herbicidal rate (%) Monochoria vaginalis: 120 g/10a active ingredient, assessed 14 days after treatment, dry weight vs untreated area
Procedure, shortened: as §4

[7] = tested on: Scirpus juncoides; test: as above; settings: for Herbicidal rate (%) Scirpus juncoides: 120 g/10a active ingredient, assessed 14 days after treatment, dry weight vs untreated area
Procedure, shortened: as §4

[8] = tested on: Echinochloa crus-galli; test: Test Example 1: herbicidal effect test by treatment of rice paddy soil (immediately after seeding)
Procedure, shortened: (§5)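 Application occurs immediately after seeding, with diluted emulsion added to paddy water (about 3 cm deep) over puddled, fertilized soil at 120 g active ingredient per 10 ares. Herbicidal rate is calculated from mean dry weight against untreated controls 14 days later.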

[9] = tested on: broad leaf weeds (Lindernia pyxidaria and Monochoria vaginalis); test: as above
Procedure, shortened: as §5

[10] = tested on: Scirpus juncoides; test: as above
Procedure, shortened: as §5

[11] = tested on: Echinochloa crus-galli; test: Test Example 3: herbicidal effect test by treatment of dry field farming soil (one day after seeding); settings: 120 g/10a active ingredient, evaluated 14 days after treatment
Procedure, shortened: (§6)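 Alluvial dry-field soil in pots, top 1 cm mixed with 20 seeds per weed species. One day after seeding, the water-diluted emulsion was sprayed onto the soil surface at 100 L per 10 ares (120 g active ingredient per 10 ares). Duplicate pots; herbicidal rate (%) from plant dry weight versus untreated, 14 days after treatment.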

[12] = tested on: Amaranthus viridis; test: as above; settings: 120 g/10a active ingredient, evaluated 14 days after treatment
Procedure, shortened: as §6

[13] = tested on: southern crabgrass; test: as above; settings: 120 g/10a active ingredient, evaluated 14 days after treatment
Procedure, shortened: as §6

[14] = tested on: Chenopodium album; test: as above; settings: 120 g/10a active ingredient, evaluated 14 days after treatment
Procedure, shortened: as §6

[15] = 120 g/10a active ingredient, dry weight vs untreated area, 14 days after treatment
[16] = Lindernia pyxidaria, 120 g/10a active ingredient, dry weight vs untreated area, 14 days after treatment
[17] = Monochoria vaginalis, 120 g/10a active ingredient, dry weight vs untreated area, 14 days after treatment
[18] = 120 g/10a active ingredient, 14 days after treatment, dry weight vs untreated area
[19] = Lindernia pyxidaria, 120 g/10a active ingredient, 14 days after treatment, dry weight vs untreated area
[20] = Monochoria vaginalis, 120 g/10a active ingredient, 14 days after treatment, dry weight vs untreated area
[21] = 120 g/10a, rated 14 days after treatment, paddy soil pots

Row | SMILES | herbicidal effect (herbicidal rate), Echinochloa crus-galli [1] [%] | herbicidal effect (herbicidal rate), Amaranthus viridis [2] [%] | herbicidal effect (herbicidal rate), southern crabgrass [3] [%] | herbicidal effect (herbicidal rate), Chenopodium album [4] [%] | Herbicidal rate (%) Echinochloa crus-galli [5] [%] | Herbicidal rate (%) Lindernia pyxidaria ([6]; Lindernia pyxidaria) [%] | Herbicidal rate (%) Monochoria vaginalis ([6]; Monochoria vaginalis) [%] | Herbicidal rate (%) Scirpus juncoides [7] [%] | Herbicidal rate (%) Echinochloa crus-galli [8, 15] [%] | Herbicidal rate (%) Lindernia pyxidaria [9, 16] [%] | Herbicidal rate (%) Monochoria vaginalis [9, 17] [%] | Herbicidal rate (%) Scirpus juncoides [10, 15] [%] | further results
1 | Cc1c(Cc2cc(F)ccc2N(S(=O)(=O)C(F)(F)F)S(=O)(=O)C(F)(F)F)c(=O)on1Cc1ccccc1 [Compound 1-32] | 0 | 40 | 40 | 60 | 90 | 80 | 90 | 90 | 80 | 80 | 90 | 90 | 
2 | CC(C)Cn1oc(=O)c(Cc2ccccc2NS(=O)(=O)C(F)(F)F)c1C(F)(F)F [Compound 1-81] | 90 | 0 | 80 | 0 | 80 | 60 | 80 | 90 | 90 | 80 | 80 | 90 | 
3 | Cc1c(Cc2ccccc2NS(=O)(=O)C(F)(F)F)c(=O)on1CCCl [Compound 1-133] | 90 | 0 | 40 | 40 | 60 | 60 | 80 | 80 | 80 | 100 | 100 | 100 | 
4 | Cc1c(Cc2ccccc2NS(=O)(=O)C(F)(F)F)c(=O)on1CC(F)(F)F [Compound 1-134] | 90 | 50 | 60 | 40 | 80 | 40 | 80 | 80 | 80 | 60 | 80 | 80 | 
5 | CSCCn1oc(=O)c(Cc2ccccc2NS(=O)(=O)C(F)(F)F)c1C [Compound 1-162] | 90 | 50 | 60 | 60 | 90 | 70 | 80 | 80 | 100 | 100 | 100 | 100 | 
6 | Cc1ccc(Cn2oc(=O)c(Cc3ccccc3NS(=O)(=O)C(F)(F)F)c2C)cc1 [Compound 1-191] | 90 | 80 | 40 | 40 | 90 | 80 | 80 | 90 | 90 | 100 | 90 | 90 | 
7 | CCCOC(=O)N(c1ccccc1Cc1c(C)n(C(C)CC)oc1=O)S(=O)(=O)C(F)(F)F (stereo not drawn) [Compound 1-632] | 90 | 40 | 90 | 40 | 90 | 90 | 90 | 90 | 90 | 90 | 90 | 90 | 
8 | Cc1c(Cc2ccccc2N(S(=O)(=O)C(F)(F)F)S(=O)(=O)C(F)(F)F)c(=O)on1CC1(C)CO1 (stereo not drawn) [Compound 1-1051] |  |  |  |  | 90 | 40 | 80 | 90 |  |  |  |  | herbicidal rate, Echinochloa crus-galli [11]: 80%; herbicidal rate, Amaranthus viridis [12]: 80%; herbicidal rate, southern crabgrass [13]: 80%; herbicidal rate, Chenopodium album [14]: 60%; Herbicidal rate (%) Echinochloa crus-galli [8, 18]: 80%; Herbicidal rate (%) Lindernia pyxidaria [9, 19]: 60%; Herbicidal rate (%) Monochoria vaginalis [9, 20]: 80%; Herbicidal rate (%) Scirpus juncoides [10, 18]: 100%
9 | Cc1c(Cc2ccccc2N(S(=O)(=O)C(F)(F)F)S(=O)(=O)C(F)(F)F)c(=O)on1S(=O)(=O)C(C)C [Compound 1-1064] |  |  |  |  |  |  |  |  |  |  |  |  | herbicidal rate, Echinochloa crus-galli [11]: 100%; herbicidal rate, Amaranthus viridis [12]: 80%; herbicidal rate, southern crabgrass [13]: 60%; herbicidal rate, Chenopodium album [14]: 80%; herbicidal rate, Echinochloa crus-galli [5, 21]: 70%; herbicidal rate, Lindernia pyxidaria ([6]; Lindernia pyxidaria, 120 g/10a, rated 14 days after treatment, paddy soil pots): 50%; herbicidal rate, Monochoria vaginalis ([6]; Monochoria vaginalis, 120 g/10a, rated 14 days after treatment, paddy soil pots): 80%; herbicidal rate, Scirpus juncoides [7, 21]: 90%; Herbicidal rate (%) Echinochloa crus-galli [8, 18]: 90%; Herbicidal rate (%) Lindernia pyxidaria [9, 19]: 90%; Herbicidal rate (%) Monochoria vaginalis [9, 20]: 90%; Herbicidal rate (%) Scirpus juncoides [10, 18]: 90%
